Test results reported in patent US20260218439A1, “METHOD OF TREATING OR REDUCING CANCER COMPRISING ADMINISTERING A COMPOUND 3-(BENZO[D][1,3]DIOXOL-5-YL)-7-(1-HYDROXYPROPAN-2-YL)-1-(1H-INDOLE-3-YL)-6,7-DIHYDRO-3H-OXAZOLE[3,4-A]PYRAZINE-5,8-DIONE” (BIOLAB SANUS FARMACEUTICA LTDA, priority 2019, published 2026).

Tests used:
[1] = tested on: RT4-human bladder cancer cells; test: Cell proliferation inhibition (CYQuant intracellular DNA), RT4; assay type: cell-based; conditions: for % Cell Proliferation Inhibition (intracellular DNA) RT4 (average ± E.P.M.): 72 hours
Description: (§1) For the execution of the assay, the compounds are diluted in DMSO 100% (v/v) at a concentration of 1000 μM and subsequently diluted in a Sodium Chloride solution 0.9% to obtain the storage solutions of interest for use in the assays. The final concentration of interest will be directly diluted in the cell culture medium. For the assay there are used the following tumor cell lineages: PC3-human prostate cancer cells; LNCAP-human prostate cancer cells; DU145-human prostate cancer; MNK45-human gastric cancer and RT4-human bladder cancer cells. The tumor cell lineages are maintained in culture according to standard procedures established by the Cell Bank of Rio de Janeiro (lineage place of origin) Procedure: • For the assay, the tumor cells are seeded in the concentration of 10.000 cells per well (final volume of the reaction of […]), the plate is incubated for 8 hours, for the cells to adhere to the wall of the wells. After this period, the plate is divided in groups: • (a) test group: […] of the samples were added (test compound) in the concentrations of interest; • (b) positive control group: […] of culture medium were added (100% of cell proliferation); • (c) negative control group: 200 mL of culture medium and […] of the vehicle used were added to dilute the compounds (without cells—zero proliferation); • (d) control group: […] were added of the vehicle used to dilute the compounds. This group is important to evaluate whether the vehicle used interferes in the cell proliferation. OBSERVATION: the treatment with the concentrations of samples (test compounds) and of the controls are carried out in triplicate. • Incubate the plate for 72 hours in a CO2 kiln at 37° C. • After the incubation period, add […] of the solution with DNA marker from the CYQuant Kit and incubate the plate, for 60 minutes, in a CO2 incubator at 37° C. The fluorescence intensity is determined using a fluorescence microplate reader with 485 nm excitation and 530 nm emission detection. The results obtained were normalized relative to the positive control group (100% proliferation). For the compounds there are prepared the storage solutions in the concentrations of: 100 nM, 1 μM, 3 μM, 5 μM, 10 μM and 30 μM (DMSO 10% v/v). While the final concentrations in the test are of: 10 nM, 100 nM, 300 nM, 500 nM, 1000 nM and 3000 nM (in DMSO 1% v/v).

[2] = tested on: MNK45-human gastric cancer; test: Cell proliferation inhibition (CYQuant intracellular DNA), MNK45; assay type: cell-based; conditions: 72 hours
Description: as §1

[3] = tested on: PC3-human prostate cancer cells; test: Cell proliferation inhibition (CYQuant intracellular DNA), PC3; assay type: cell-based; conditions: for % Cell Proliferation Inhibition (intracellular DNA) PC-3 (average ± E.P.M.): 72 hours
Description: as §1

[4] = tested on: DU145-human prostate cancer; test: Cell proliferation inhibition (CYQuant intracellular DNA), DU145; assay type: cell-based; conditions: for % Cell Proliferation Inhibition (intracellular DNA) DU145 (average ± E.P.M.): 72 hours
Description: as §1

PDE5A1 = target: T1, PDE5A1 (Homo sapiens, UniProt O76074); test: PDE5A1 fluorescence polarization enzyme assay (BPS Bioscience kit 60350); assay type: biochemical
T1 construct: purchased BPS Bioscience 60350
Description: The evaluation of the compound is studied using BPS Bioscience enzyme assay kit (catalogue 60350). The PDE5A1 Assay kit is designed for identification of PDE5A1 inhibitors using fluorescence polarization. The assay is based on the binding of a fluorescent nucleotide monophosphate generated by PDE5A1 enzyme to the binding agent.
In this methodology only two simple steps on a microtiter plate are required for PDE5A1 reactions. First, the fluorescently labeled cGMP is incubated with PDE5A1 for 1 hour. Second, the binding agent is added to the reaction mixture to produce a change in fluorescent polarization that can then be measured using a fluorescence reader equipped for the measurement of fluorescence polarization.
For the assay the storage reagent FAM-Cyclic-3′,5′-GMP (20 μM) is diluted with PDE assay buffer to achieve the solution with a […]; the PDE5A1 enzyme is thawed and diluted with the PDE buffer obtaining a PDE5A1 solution at 10 μg/mL.
The assay compounds are diluted with DMSO 100% (v/v) at a concentration of 1000 μM and subsequently diluted in a Sodium chloride 0.9% solution to obtain a curve of concentrations of interest for the assay. The compounds are diluted in concentrations of: 10 nM, 30 nM, 50 nM, 100 nM, 300 nM, 500 nM, 1 μM, 3 μM, 5 μM (DMSO 10% v/v).
The study is comprised of groups: (i) substrate control; (ii) positive control (KIT); (iii) samples in several concentrations; (iv) tadalafil (comparative control). Each parameter (group) is triple labeled.
• For the 4 groups there is added, to each microplate well, […] of the FAM-Cyclic-3′ reagent, 5′-GMP (200 μM). • To the substrate control group there is added, to each well, […] of vehicle (DMSO 10% v/v) and […] PDE Buffer. • To the positive control group there is added, to each well, […] of vehicle (DMSO 10% v/v). • To the tadalafil group: there is added 5 mL of the solution in the concentrations of interest. • To the test group there is added 5 mL of the sample solution (test compound)
OBSERVATION: the parameters tested are in triplicate.
To begin the reaction, add […] of the PDE5A1 enzyme (diluted as described above) to the microplate wells designated as Positive Control and Samples (test and tadalafil), and incubate the microplate, for 1 hour, at a temperature of 25° C.
After the incubation period, the reaction is interrupted by the addition, in all the wells, of […] of the binding agent solution and the microplate is incubated for 30 minutes, under light stirring, at room temperature. The reading of the microplate is carried out in Polarized Fluorescence (475-495 nm—excitation and 518-538 nm—emission detection) 500 nanoseconds integration time.

[5] = tested on: LNCAP-human prostate cancer cells; test: Cell proliferation inhibition (CYQuant intracellular DNA), LNCAP; assay type: cell-based; conditions: for % Cell Proliferation Inhibition (intracellular DNA) LNCAP (average ± E.P.M.): 72 hours
Description: as §1

With “(R)-3-(benzo [d][1, 3]dioxol-5-yl)-7-((R)-1-hydroxypropan-2-yl)-1-(1H-indole-3-yl)-6, 7-dihydro-3H-oxazole [3, 4-a]pyrazine-5, 8-dione with (S)-3-(benzo [d][1,3]dioxol-5-yl)-7-((R)-1-hydroxypropan-2-yl)-1-(1H-indole-3-yl)-6, 7-dihydro-3H-oxazole [3, 4-a]pyrazine-5, 8-dione [BL-380]” the “% Cell Proliferation Inhibition (intracellular DNA) RT4 (average ± E.P.M.)” value ([1]; RT4, 100 nM) was 8 ± 6%, the “% Cell Proliferation Inhibition (intracellular DNA) RT4 (average ± E.P.M.)” value ([1]; RT4, 300 nM) was 5 ± 5% and the “% Cell Proliferation Inhibition (intracellular DNA) RT4 (average ± E.P.M.)” value ([1]; RT4, 500 nM) was 3 ± 5%. For the same substance, the “% Cell Proliferation Inhibition (intracellular DNA) RT4 (average ± E.P.M.)” value ([1]; RT4, 1000 nM) was 3 ± 1%, the “% Cell Proliferation Inhibition (intracellular DNA) RT4 (average ± E.P.M.)” value ([1]; RT4, 3000 nM) was 58 ± 4% and the “antiproliferative effect (result in words)” value (shortened to “antiproliferative effect”) ([1]; RT4 bladder cancer tumor lineage) was “presented antiproliferative effect”. The “% Cell Proliferation Inhibition (intracellular DNA) MNK45 (average ± E.P.M.)” value ([2]; MNK45, 100 nM) was 7 ± 2%, the “% Cell Proliferation Inhibition (intracellular DNA) MNK45 (average ± E.P.M.)” value ([2]; MNK45, 300 nM) was 0% and the “% Cell Proliferation Inhibition (intracellular DNA) MNK45 (average ± E.P.M.)” value ([2]; MNK45, 500 nM) was 0%. For the same substance, the “% Cell Proliferation Inhibition (intracellular DNA) MNK45 (average ± E.P.M.)” value ([2]; MNK45, 1000 nM) was 0%, the “% Cell Proliferation Inhibition (intracellular DNA) MNK45 (average ± E.P.M.)” value ([2]; MNK45, 3000 nM) was 16 ± 5% and the “antiproliferative effect” value ([3]; PC3 prostate cancer tumor lineage) was “presented antiproliferative effect”. The “% Cell Proliferation Inhibition (intracellular DNA) PC-3 (average ± E.P.M.)” value ([3]; PC-3, 10 nM) was 39 ± 6%, the “% Cell Proliferation Inhibition (intracellular DNA) PC-3 (average ± E.P.M.)” value ([3]; PC-3, 100 nM) was 25 ± 5% and the “% Cell Proliferation Inhibition (intracellular DNA) PC-3 (average ± E.P.M.)” value ([3]; PC-3, 300 nM) was 28 ± 2%. For the same substance, the “% Cell Proliferation Inhibition (intracellular DNA) PC-3 (average ± E.P.M.)” value ([3]; PC-3, 500 nM) was 48 ± 6%, the “% Cell Proliferation Inhibition (intracellular DNA) PC-3 (average ± E.P.M.)” value ([3]; PC-3, 1000 nM) was 40 ± 3% and the “% Cell Proliferation Inhibition (intracellular DNA) PC-3 (average ± E.P.M.)” value ([3]; PC-3, 3000 nM) was 54 ± 4%. The “% Cell Proliferation Inhibition (intracellular DNA) DU145 (average ± E.P.M.)” value ([4]; DU145, 100 nM) was 12 ± 4%, the “% Cell Proliferation Inhibition (intracellular DNA) DU145 (average ± E.P.M.)” value ([4]; DU145, 300 nM) was 10 ± 5% and the “% Cell Proliferation Inhibition (intracellular DNA) DU145 (average ± E.P.M.)” value ([4]; DU145, 500 nM) was 12 ± 2%. The “% Cell Proliferation Inhibition (intracellular DNA) DU145 (average ± E.P.M.)” value ([4]; DU145, 1000 nM) was 10 ± 3%, the “% Cell Proliferation Inhibition (intracellular DNA) DU145 (average ± E.P.M.)” value ([4]; DU145, 3000 nM) was 31 ± 5% and the “antiproliferative effect” value ([4]; DU145 prostate cancer tumor lineage) was “presented antiproliferative effect”. For the same substance, the “% of Inhibition (PDE5A1)” value (PDE5A1; compound 10 nM) was 0%, the “% of Inhibition (PDE5A1)” value (PDE5A1; compound 30 nM) was 0% and the “% of Inhibition (PDE5A1)” value (PDE5A1; compound 50 nM) was 0%. For the same substance, the “% of Inhibition (PDE5A1)” value (PDE5A1; compound 100 nM) was 0%, the “% of Inhibition (PDE5A1)” value (PDE5A1; compound 300 nM) was 15 ± 3% and the “% of Inhibition (PDE5A1)” value (PDE5A1; compound 500 nM) was 25 ± 3%. For the same substance, the “% of Inhibition (PDE5A1)” value (PDE5A1; compound 1000 nM) was 55 ± 4%, the “% of Inhibition (PDE5A1)” value (PDE5A1; compound 3000 nM) was 65 ± 2% and the “% of Inhibition (PDE5A1)” value (PDE5A1; compound 5000 nM) was 78 ± 1%. The “PDE5 inhibition (result in words)” value (PDE5A1; concentration series) was “capable of inhibiting the PDE5 in a dose-dependent manner”, the “concentration as from which PDE5 inhibition was observed” value (PDE5A1; tested 10 nM to 5000 nM) was ≥ 300 nM and the “antiproliferative effect” value ([5]; LNCAP prostate cancer tumor lineage) was “presented antiproliferative effect”. For the same substance, the “% Cell Proliferation Inhibition (intracellular DNA) LNCAP (average ± E.P.M.)” value ([5]; 10 nM) was 26 ± 10%, the “% Cell Proliferation Inhibition (intracellular DNA) LNCAP (average ± E.P.M.)” value ([5]; 100 nM) was 12 ± 3% and the “% Cell Proliferation Inhibition (intracellular DNA) LNCAP (average ± E.P.M.)” value ([5]; 300 nM) was 29 ± 6%. For the same substance, the “% Cell Proliferation Inhibition (intracellular DNA) LNCAP (average ± E.P.M.)” value ([5]; 500 nM) was 27 ± 2%, the “% Cell Proliferation Inhibition (intracellular DNA) LNCAP (average ± E.P.M.)” value ([5]; 1000 nM) was 37 ± 2% and the “% Cell Proliferation Inhibition (intracellular DNA) LNCAP (average ± E.P.M.)” value ([5]; 3000 nM) was 48 ± 6%.
